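Exposure lasted 48 hours, with cells grown in 96-well plates and compounds tested at five concentrations. TGI marks complete inhibition of growth.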 Some results are limits rather than exact numbers.

Some test systems named below: RPMI-8226 leukemia; M14 melanoma; NCI-H522 lung; HCT-116 colon; MCF7 breast; HOP-62 NSCLC; T-47D breast; SK-MEL-2 melanoma; SW-620 colon; RXF 393 renal; PC-3 prostate; SK-OV-3 ovarian; SR leukemia; A549 NSCLC; OVCAR-4 ovarian; CCRF-CEM leukemia; NCI-H460 lung.
Holding throughout (assay): growth of human tumour cells (NCI), 48 h

Consider `CC1(C)S[C@H](CN)N[C@H]1C(=O)OC(c1ccccc1)c1ccccc1`, for which the TGI is 54.2 µM in the experiment with RPMI-8226 leukemia; above 100 µM in the experiment with M14 melanoma; 83.4 µM in the experiment with NCI-H522 lung; above 100 µM with HCT-116 colon; above 100 µM in the experiment with MCF7 breast; above 100 µM in the experiment with HOP-62 NSCLC. For the same molecule, the TGI in the experiment with T-47D breast is 74.3 µM; in the experiment with SK-MEL-2 melanoma, 93.3 µM; with SW-620 colon, above 100 µM; with RXF 393 renal, above 100 µM; with PC-3 prostate it was 92.4 µM; with SK-OV-3 ovarian it was above 100 µM. In addition, the TGI in the experiment with SR leukemia was 63.6 µM; with A549 NSCLC, above 100 µM; with OVCAR-4 ovarian, above 100 µM.
For `NC(=O)C(=CNC(=S)Nc1ccc(S(=O)(=O)Nc2ccccn2)cc1)C(N)=O`, the TGI in the experiment on RPMI-8226 leukemia, in the experiment with M14 melanoma, in the experiment with NCI-H522 lung, in the experiment with HCT-116 colon, in the experiment with MCF7 breast and in the experiment on HOP-62 NSCLC was above 100 µM throughout. The TGI with T-47D breast, in the experiment with CCRF-CEM leukemia, in the experiment on SK-MEL-2 melanoma, in the experiment with SW-620 colon, in the experiment with RXF 393 renal and in the experiment on PC-3 prostate was above 100 µM each time. Further, the TGI in the experiment with SK-OV-3 ovarian, in the experiment on SR leukemia, in the experiment with A549 NSCLC, with NCI-H460 lung and in the experiment with OVCAR-4 ovarian was above 100 µM each time.
Consider `CC(=O)C1(C)CC(C#N)(C#N)C(C#N)=C1N` (stereo not drawn), for which the TGI with RPMI-8226 leukemia, in the experiment on M14 melanoma, in the experiment on NCI-H522 lung, in the experiment on HCT-116 colon, in the experiment on MCF7 breast and with HOP-62 NSCLC was above 100 µM throughout. Further, the TGI in the experiment on T-47D breast, in the experiment with CCRF-CEM leukemia, in the experiment on SK-MEL-2 melanoma, in the experiment with SW-620 colon, in the experiment with RXF 393 renal and with PC-3 prostate was above 100 µM in each case. For the same molecule, the TGI in the experiment with SK-OV-3 ovarian, in the experiment on SR leukemia, in the experiment on A549 NSCLC and with OVCAR-4 ovarian was above 100 µM each time.
`O=[N+]([O-])c1ccc(C2=NOC(c3ccc(Cl)cc3)N2C23CC4CC(CC(C4)C2)C3)cc1` (stereo not drawn): the TGI in the experiment on RPMI-8226 leukemia, with M14 melanoma, in the experiment with NCI-H522 lung, in the experiment on HCT-116 colon, in the experiment with MCF7 breast and in the experiment with HOP-62 NSCLC was above 100 µM throughout. For the same molecule, the TGI is above 100 µM with T-47D breast; above 100 µM in the experiment on CCRF-CEM leukemia; above 100 µM with SK-MEL-2 melanoma; above 100 µM in the experiment with SW-620 colon; 9.89 µM with RXF 393 renal; above 100 µM in the experiment with PC-3 prostate. Also, the TGI with SK-OV-3 ovarian, in the experiment on SR leukemia, in the experiment on A549 NSCLC, with NCI-H460 lung and in the experiment on OVCAR-4 ovarian was above 100 µM each time.
With `NC(=O)NNCc1c(-c2ccccc2)no[n+]1[O-]`, the TGI in the experiment on RPMI-8226 leukemia, in the experiment on M14 melanoma, in the experiment on NCI-H522 lung, with HCT-116 colon, in the experiment on MCF7 breast and in the experiment on HOP-62 NSCLC was above 100 µM in each case. Moreover, the TGI in the experiment with T-47D breast, in the experiment with CCRF-CEM leukemia, in the experiment with SK-MEL-2 melanoma, in the experiment on SW-620 colon, with RXF 393 renal and in the experiment on PC-3 prostate was above 100 µM throughout. Also, the TGI in the experiment on SK-OV-3 ovarian, in the experiment with SR leukemia, in the experiment on A549 NSCLC, in the experiment on NCI-H460 lung and in the experiment with OVCAR-4 ovarian was above 100 µM each time.
Regarding `CCc1cc2c(c3c1CCCC3)CC1(Cc3ccc(C(=O)OC)cc3C1)C2` (stereo not drawn), the TGI with RPMI-8226 leukemia, in the experiment with M14 melanoma, in the experiment on NCI-H522 lung, in the experiment on HCT-116 colon, with MCF7 breast and with HOP-62 NSCLC was above 100 µM each time. The TGI with T-47D breast was above 100 µM; with CCRF-CEM leukemia it was 56 µM; in the experiment on SK-MEL-2 melanoma, above 100 µM; with SW-620 colon, above 100 µM; in the experiment with RXF 393 renal, above 100 µM; in the experiment with PC-3 prostate, above 100 µM. Also, the TGI in the experiment with SK-OV-3 ovarian is above 100 µM; in the experiment with SR leukemia it was 85.1 µM; in the experiment with A549 NSCLC, above 100 µM; in the experiment on NCI-H460 lung, above 100 µM; in the experiment on OVCAR-4 ovarian, above 100 µM.
`O=C(Cn1c(=O)oc2ccc(C(=O)c3ccc(F)cc3)cc21)c1ccccc1`: the TGI in the experiment on RPMI-8226 leukemia, in the experiment on M14 melanoma, with NCI-H522 lung, in the experiment with HCT-116 colon, in the experiment on MCF7 breast and in the experiment on HOP-62 NSCLC was above 100 µM each time. Further, the TGI in the experiment on T-47D breast, in the experiment with CCRF-CEM leukemia, in the experiment on SK-MEL-2 melanoma, with SW-620 colon, in the experiment on RXF 393 renal and with PC-3 prostate was above 100 µM in each case. Further, the TGI in the experiment with SK-OV-3 ovarian, in the experiment on SR leukemia, with A549 NSCLC, in the experiment on NCI-H460 lung and with OVCAR-4 ovarian was above 100 µM throughout.
As to `COC1CC(C)([N+](=O)[O-])C(O)C(C)O1` (stereo not drawn), the TGI in the experiment on RPMI-8226 leukemia, with M14 melanoma, in the experiment with NCI-H522 lung, in the experiment with HCT-116 colon, in the experiment on MCF7 breast and in the experiment with HOP-62 NSCLC was above 100 µM each time. Further, the TGI in the experiment on T-47D breast, in the experiment on CCRF-CEM leukemia, with SK-MEL-2 melanoma, with SW-620 colon, in the experiment on RXF 393 renal and in the experiment on PC-3 prostate was above 100 µM in each case. Moreover, the TGI in the experiment with SK-OV-3 ovarian, in the experiment with SR leukemia, in the experiment on A549 NSCLC, in the experiment on NCI-H460 lung and in the experiment with OVCAR-4 ovarian was above 100 µM in each case.

For the origin of these results see PubChem BioAssay (NCI).
